# According to US12264185B2, “Stabilized BCL9 peptides for treatment of aberrant Wnt signaling” (WntRx Pharmaceuticals Inc., priority 2015, dated 2025):
# “And” between values parts separate entries of the source, which are not always exact repeats. Identical values can stand only once. Like-named read-outs stand apart in the source and are kept apart here.
# How the values were obtained:
# β-catenin = target: T1, β-catenin (Homo sapiens, UniProt P35222); assay: HTRF binding assay; conditions: WX-024 coupled to biotin
# T1 sequence (P35222 1-781): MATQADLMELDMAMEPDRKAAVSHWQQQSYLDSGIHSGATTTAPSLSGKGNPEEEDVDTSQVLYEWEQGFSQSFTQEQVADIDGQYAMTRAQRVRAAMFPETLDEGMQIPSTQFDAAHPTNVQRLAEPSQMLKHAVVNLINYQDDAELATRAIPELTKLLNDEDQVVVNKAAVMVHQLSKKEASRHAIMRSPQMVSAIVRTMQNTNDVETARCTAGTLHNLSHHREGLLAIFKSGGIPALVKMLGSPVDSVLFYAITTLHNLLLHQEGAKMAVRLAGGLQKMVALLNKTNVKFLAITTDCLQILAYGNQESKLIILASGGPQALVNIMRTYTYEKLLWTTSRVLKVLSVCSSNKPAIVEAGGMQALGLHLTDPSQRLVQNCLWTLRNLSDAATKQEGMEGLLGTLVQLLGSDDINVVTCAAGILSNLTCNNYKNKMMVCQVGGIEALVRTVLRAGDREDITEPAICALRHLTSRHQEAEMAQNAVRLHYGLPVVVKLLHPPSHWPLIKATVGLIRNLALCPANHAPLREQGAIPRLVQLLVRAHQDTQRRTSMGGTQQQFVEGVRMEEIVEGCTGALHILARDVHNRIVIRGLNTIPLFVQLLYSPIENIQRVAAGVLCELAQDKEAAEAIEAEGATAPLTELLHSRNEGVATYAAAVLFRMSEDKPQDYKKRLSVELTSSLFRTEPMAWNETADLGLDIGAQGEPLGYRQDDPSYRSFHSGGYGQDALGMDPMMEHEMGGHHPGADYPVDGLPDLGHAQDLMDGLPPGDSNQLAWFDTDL
# From the text: HTRF assays provide a means of assaying protein-protein interactions in a high-throughput format, as discussed in Degorce et al., Curr Chemical Genom. 3, 22-32 (2009). In an HTRF assay to measure a protein-protein interaction, binding of 2 proteins brings an HTRF donor and acceptor fluorophore into close proximity and generates the fluorescence energy transfer (FRET) signal. Each protein of the interaction is associated with the donor or the acceptor by an antibody reaction.
# FIG. 6A provides a schematic to depict the basis of the HTRF assay. In the HTRF assay for β-catenin (Cisbio), β-catenin is bound by an XL665-coupled antibody (ab) against β-catenin. See Degorce (2009). β-catenin bound to an XL665-coupled antibody can interact with its binding partners, such as BCL9 or BCL9 peptides.
# SA is a high-affinity binding partner to biotin and will tightly bind the SA-europium cryptate to the biotinylated stabilized polypeptides. Europium cryptate is an energy donor for an HTRF reaction. When not closely bound, there is no energy transfer between europium cryptate and XL665.
# Histidine-tagged β-catenin, BCL9 peptide labeled with biotin, europium (Eu) labeled monoclonal antibody for histidine tag, and SA-XL665 were used in the HTRF assay. […] The reaction was incubated at room temperature for 1 hour and then the plate was read.
# [1] = test system: patient derived colon cancer cells; assay: Patient derived xenograft (PDX) colon cancer model in NOD/SCID mice; type: in vivo; conditions: 15 mg/kg i.v. daily
# From the text: To assess whether WX-024 is also applicable to tumor derived from human patients, a xenograft animal model inoculated with patient derived colon cancer cells was exposed to WX-024. Samples derived from four different colon cancer patients were screened for biomarkers that indicate an elevated level of canonical Wnt/β-catenin signaling. […] The samples were also stained for nuclear co-localization of BCL9 and β-catenin. […] Male NOD/SCID mice at about 5 weeks of age were […] with colon cancer cells derived from patient #8. Briefly, the selected CRC tumor samples from FIG. 28A were sliced into 3 mm^3 fragments and subcutaneously implanted onto the right flank of NOD/SCID mice. […] Each moue was given a daily intravenous administration for more than 31 days. […] At the end of the study, the mice were sacrificed and tumor samples were collected.
# TGF-beta = TGF-beta transcription assay (SBE-bla HEK 293T cell line); type: cell-based
# From the text: In these assays, the trifluoroacetic salt form of WX-024 was used.
# in vivo = conditions: male, ICR, mouse
# Procedure: The tail vein was used for i.v. injections. […] Following injections, blood samples were obtained via the retro-orbital vein at 5 min, 1, 2, 4, 6, 8, 12, and 24 hours postdose. Plasma was obtained from the blood samples following mixing with sodium heparin and centrifugation.
# LC analysis was done using an Agilent 100 HPLC. MS analysis was done using an AB Sciex API 4000. Calibration standards were prepared by serial dilution.
# The maximum observed concentration (Cmax), terminal half-life (T1/2), total body clearance (CL), volume of distribution (Vz), area under the curve from the time of dosing to the last measurable concentration (AUC0-t), area under the curve from the time of dosing extrapolated to infinity (AUC0-inf), and bioavailability were calculated using noncompartmental analysis modules in the FDA-certified pharmacokinetic program WinNonlin Professional v5.2 (Pharsight).
# Briefly, the mice were administered 1 mg/kg or 5 mg/kg intravenously, or 5 mg/kg intraperitoneally. Blood samples were collected at 15 min, 1, 2, 3, 6, 8, 12, and 24 hours post administration.
# [2] = Toxicology study, 14 days i.v., female balb/c mice; type: in vivo
# Procedure: At the end of the study, the mice were sacrificed and various major organs were collected. The tissue samples were treated and processed as described in Example 5.5. […] The body weight of each moue was monitored throughout the study and the average body weight of each treatment group is shown in FIG. 30B. […] At the end of the study, blood from each mouse was also collected for serum chemistry and hematological analysis (complete blood cell count analysis).
# Wnt/β-catenin signaling = assay: GeneBLAzer beta-lactamase Wnt transcription reporter assay, LEF/TCF-bla HCT-116 cells; type: cell-based
# From the text: ICG001 was used as a comparison. The GeneBLAzer uses CellSensor™ LEF/TCF-bla HCT-116 cells that contain a beta-lactamase (BLA) reporter gene under the control of the β-catenin/LEF/TCF response element stably integrated into HCT-116 cells, as shown in FIG. 5A. These cells constitutively express beta-lactamase and can be used to detect agonists and antagonists of the Wnt/β-catenin signaling pathway. The GeneBLAzer assay provides a ratiometric reporter response involving a two-color (blue/green) readout of stimulated and unstimulated cells.
# LEF/TCF-bla HCT-116 cells were plated in assay medium (Invitrogen) on clear-bottom plates and incubated overnight at 37° C. […] Cells were next incubated with the Wnt agonist, mWnt3a (provided in the GeneBLAzer kit) for 5 hours at 37° C. Substrate mixture (containing LiveBLAzer™ B/G substrate that employs CCF4-AM, a FRET substrate for beta-lactamase) was added to the wells, and the plate was incubated for 2.5 hours at room temperature in the dark. Black-walled, clear-bottom, 384-well plates (Corning Costar) were used with scanning done with a Spectramax M2. Plates were scanned first (Scan 1 in the blue channel) with excitation filter 409/20 nm and emission filter 460/40 nm. Plates were then scanned (Scan 2 in the green channel) with excitation filer 409/20 nm and emission filter 530/30 nm.
smiles,measurement,setting,value
"CC[C@H](C)[C@@H]1NC(=O)[C@@](C)(NC(=O)[C@H](CCCNC(=N)N)NC(=O)[C@H](CC(C)C)NC(=O)[C@@H](NC(=O)[C@H](CCC(N)=O)NC(=O)[C@H](CC(C)C)NC(C)=O)[C@@H](C)O)CCCC=CCCC[C@@](C)(C(=O)N[C@@H](CC(C)C)C(=O)N[C@@H](Cc2ccc3ccccc3c2)C(N)=O)NC(=O)[C@H](CCCNC(=N)N)NC(=O)[C@H](CCC(N)=O)NC1=O [WX-024, LQTLRXaa1IQRXaa2L]",Kd,β-catenin,4.21 nM
same,CD44 expression in tumor samples,[1],capable of reducing CD44 expression
same,average tumor growth inhibition rate,[1]; after 31 days of dosing,75.6%
same,IC50,"TGF-beta; Example 4.5, read-out: IC50, TGF-beta transcription assay",> 10000 nM
same,IC50,"TGF-beta; SBE-bla HEK 293T, TGF-beta 1 stimulation, trifluoroacetic salt form, read-out: IC50 (nM), TGF-beta pathway",> 3160 nM
same,IC50,"TGF-beta; summary, Example 6, read-out: IC50, TGF-0 reporter assay",> 100 nM
same,half-life,in vivo,2.4 to 2.5 h
same,blood cell count profile vs vehicle,[2]; 20 mg/kg i.v. daily,did not differ significantly
same,average body weight,"[2]; 10, 15 or 20 mg/kg i.v. daily",stabilized and was maintained throughout the study
same,food consumption,"[2]; 10, 15 or 20 mg/kg i.v. daily",recovered to near baseline levels with continued treatment
same,IC50,"Wnt/β-catenin signaling; LEF/TCF-bla HCT-116 cells, read-out: IC50, Wnt transcription",191 nM and ~200 nM
same,IC50,"Wnt/β-catenin signaling; acetate salt form, read-out: IC50, Wnt transcription inhibition",292 nM
same,IC50,"Wnt/β-catenin signaling; hydrochloric salt, read-out: IC50, Wnt transcription inhibition",313 nM
